Data published in EP0051773A1, “Penicillins, their salts, process for their preparation and pharmaceutical compositions containing them” (Dr. Karl Thomae GmbH, priority 1980, dated 1982).
In brackets after ≈: the same amount, converted by molar mass.

Columns and labels:
[1] = system: Serratia marcescens ATCC 13 880; assay: serial dilution test in microtiter system (bacteriostasis, MIC); type: cell-based; settings: ATCC13, liquid medium, 18 to 20 h at 37°C, read-out: MHK-Werte Serr. marcesc. ATCC 13 880
Procedure: (§1) Für die Untersuchungen wurde die Methode des Reihenverdünnungstestes im Mikrotitersystem angewandt. Die Prüfung der Substanzen auf Bakteriostase erfolgte in flüssigem Medium. Es wurde die Bakteriostasewirkung bei folgenden Konzentrationen untersucht.
(§2) Es wurde ein Nährboden folgender Zusammensetzung benutzt: 10 g Pepton, 8 g Fleischextrakt-Oxoid, 3 g Natriumschlorid, 2 g sek. Natriumphosphat werden mit dest. Wasser auf 1000 ml aufgefüllt (pH 7,2-7,4). Lediglich bei der Testung gegen Streptokokken wurde 1% Glucose hinzugefügt. Das Alter der Primärkulturen betrug etwa 20 Stunden. Die Einstellung der Keimsuspension erfolgte am Photometer (nach "Eppendorf") (Reagenzglas-Durchmesser 14 mm, Filter 546 nm) anhand der Trübung einer Bariumsulfat-Vergleichssuspension, die durch eine Bariumsulfat-Aufschwemmung erzeugt wurde, welche durch die Zugabe von 3,0 ml 1%ige Bariumchloridlösung in 97 ml 1%ige Schwefelsäure entstand. Nach der Einstellung wurden Streptococcus Aronson im Verhältnis 1:15 und die übrigen Testkeime im Verhältnis 1:1500 mit einer Kochsalzlösung weiter verdünnt.
(§3) 16 mg der jeweiligen Substanz wurden in 10 ml-Meßkolben eingewogen und mit dem Lösungsmittel bis zur Marke aufgefüllt. Die weitere Verdünnungsreihe wurde mit destilliertem Wasser oder dem jeweiligen Lösungsmittel hergestellt.
(§4) Die Vertiefungen der Mikrotiterplatten wurden mit 0,2 ml Nährmedium, 0,01 ml der entsprechenden Substanzverdünnung und mit einem Tropfen Keimsuspension (0,01 ml) beschickt und 18 bis 20 Stunden bei 37°C bebrütet. Eine Lösungsmittelkontrolle wurde stets mitgeführt.
(§5) Die Ablesung wurde makroskopisch vorgenommen, wobei die jeweilige Grenkonzentration (= niedrigste noch bakteriostatisch wirksame Konzentration) ermittelt wurde.
(§6) Als Testorganismen wurden benützt: - Staphylococcus aureus SG 511, Escherichia coli ATCC 11 775, Pseudomonas aeruginosa Hamburgensis und Walter, Serratia marcescens ATCC 13 880, Klebsiella pneumoniae ATCC 10 031 und BC 6, Proteus mirabilis Hamburgensis, Proteus rettgeri BC 7 und Enterobacter cloacae ATCC 13 047.
(§7) In der folgenden Tabelle 2 sind die ermittelten minimalen Hemmkonzentrationen (MIC) für typische Vertreter der erfindungsgemäßen Verbindungen aufgeführt, wobei sich die Ziffern auf die Penicilline der Tabelle 1 Seite 18 beziehen.

[2] = system: Klebsiella pneumoniae ATCC 10 031; assay: as above; type: cell-based; settings: ATCC10, liquid medium, 18 to 20 h at 37°C, read-out: MHK-Werte Kl. pneum. ATCC 10 031
Procedure: as §1, §2, §3, §4, §5, §6, §7

[3] = system: Staphylococcus aureus SG 511; assay: as above; type: cell-based; settings: SG511, liquid medium, 18 to 20 h at 37°C, read-out: MHK-Werte Staph. aureus SG 511
Procedure: as §1, §2, §3, §4, §5, §6, §7

[4] = system: Escherichia coli ATCC 11 775; assay: as above; type: cell-based; settings: ATCC11, liquid medium, 18 to 20 h at 37°C, read-out: MHK-Werte E.coli ATCC 11 755
Procedure: as §1, §2, §3, §4, §5, §6, §7

[5] = system: Proteus mirabilis Hamburgensis; assay: as above; type: cell-based; settings: liquid medium, 18 to 20 h at 37°C, read-out: MHK-Werte Prot. mir. Hbg.
Procedure: as §1, §2, §3, §4, §5, §6, §7

Proteus rettgeri BC 7 = assay: as above; type: cell-based; settings: Providencia rettgeri, BC7; liquid medium, 18 to 20 h at 37°C; read-out: MHK-Werte Prot. rettg. BC 7
Procedure: as §1, §2, §3, §4, §5, §6, §7

[6] = system: Pseudomonas aeruginosa Walter; assay: as above; type: cell-based; settings: liquid medium, 18 to 20 h at 37°C, read-out: MHK-Werte Pseud. aerug. Walter
Procedure: as §1, §2, §3, §4, §5, §6, §7

[7] = system: Klebsiella pneumoniae BC 6; assay: as above; type: cell-based; settings: BC6, liquid medium, 18 to 20 h at 37°C, read-out: MHK-Werte Kl. pneum. BC 6
Procedure: as §1, §2, §3, §4, §5, §6, §7

[8] = system: Enterobacter cloacae ATCC 13 047; assay: as above; type: cell-based; settings: ATCC13, liquid medium, 18 to 20 h at 37°C, read-out: MHK-Werte Eb. cloacae 13 047
Procedure: as §1, §2, §3, §4, §5, §6, §7

[9] = system: Pseudomonas aeruginosa Hamburgensis; assay: as above; type: cell-based; settings: liquid medium, 18 to 20 h at 37°C, read-out: MHK-Werte Pseud. aerug. Hbg.
Procedure: as §1, §2, §3, §4, §5, §6, §7

E.coli ATCC 11 775 = assay: experimental intraperitoneal infection in mice, ED50 (survival); type: in vivo, Mäuse; settings: Escherichia coli, ATCC 11 / ATCC 1175, sc, 168 h; female NMRI mice, i.p. infection, s.c. application, treated once, 7 days observation
Procedure: (§8) Eine Reihe der erfindungsgemäßen Verbindungen wurde in vivo bei experimentellen Infektionen an Mäusen untersucht. Man verwendete als pathogene Bakterien E.coli ATCC 11 775 und Pseudomonas aeruginosa Walter. Es wurde eine intraperitoneale Infektion mit 0,2 ml einer 5%igen Mucinsuspension der Bakterien gesetzt. Dies entspricht etwa 2x10^6 Keime E.coli bzw. 8x10^5 Keime Pseudomonas/Maus. Weibliche Mäuse vom Stamm NMRI wurden in Gruppen von jeweils 10 Tieren aufgeteilt, zwei Gruppen blieben unbehandelt, die restlichen Gruppen wurden mit verschiedenen Dosen der jeweiligen erfindungsgemäßen Penicilline zur Bestimmung der ED50 (Dosis, bei der 50 % der Tiere überleben) behandelt. Bei der E.coli-Infektion wurde einmal therapiert. Bei der Pseudomonas-Infektion wurde dreimal behandelt.
(§9) Der Beobachtungszeitraum betrug in beiden Fällen 7 Tage. Die Ergebnisse dieser Teste mit repräsentativen Vertretern der erfindungsgemäßen Penicilline sind in der Tabelle 3 dargestellt.

[10] = system: Pseudomonas aeruginosa Walter; assay: as above; type: in vivo, Mäuse; settings: sc, 168 h, female NMRI mice, i.p. infection, s.c. application, treated three times, 7 days observation, read-out: ED50 Pseud. aerug. Walter
Procedure: as §8, §9

| SMILES | MIC [1] [µg/mL] | MIC [2] [µg/mL] | MIC [3] [µg/mL] | MIC [4] [µg/mL] | MIC [5] [µg/mL] | MIC (Proteus rettgeri BC 7) [µg/mL] | MIC [6] [µg/mL] | MIC [7] [µg/mL] | MIC [8] [µg/mL] | MIC [9] [µg/mL] | ED50 (E.coli ATCC 11 775) [mg/kg] | ED50 [10] [mg/kg] |
| --- | --- | --- | --- | --- | --- | --- | --- | --- | --- | --- | --- | --- |
| C[S+]([O-])c1ccc(Nc2ncc(NC(=O)NC(C(=O)NC3C(=O)N4C3SC(C)(C)C4C(=O)O)c3ccccc3)c(O)n2)cc1 (stereo not shown) [Verbindung 21] | 0.25 (≈ 0.391 µM) | 2 (≈ 3.13 µM) | 0.25 (≈ 0.391 µM) | 0.25 (≈ 0.391 µM) | 0.12 (≈ 0.188 µM) | 0.5 (≈ 0.782 µM) | 2 (≈ 3.13 µM) | 1 (≈ 1.56 µM) | 2 (≈ 3.13 µM) | 2 (≈ 3.13 µM) | 3 | 6.6 |
| CC1(C)SC2C(NC(=O)C(NC(=O)Nc3cnc(Nc4ccc(S(C)(=O)=O)cc4)nc3O)c3ccccc3)C(=O)N2C1C(=O)O (stereo not shown) [Verbindung 24] | 0.12 (≈ 0.183 µM) | 0.5 (≈ 0.763 µM) | 0.25 (≈ 0.381 µM) | 0.12 (≈ 0.183 µM) | 0.06 (≈ 0.0915 µM) | 0.12 (≈ 0.183 µM) | 2 (≈ 3.05 µM) | 0.5 (≈ 0.763 µM) | 2 (≈ 3.05 µM) | 1 (≈ 1.53 µM) | 4.7 | 7.5 |
| CC1(C)SC2C(NC(=O)C(NC(=O)Nc3cnc(Nc4ccc([N+](=O)[O-])cc4)nc3O)c3ccccc3)C(=O)N2C1C(=O)O (stereo not shown) [Verbindung 41] | 0.12 (≈ 0.193 µM) | 0.5 (≈ 0.803 µM) | 0.25 (≈ 0.402 µM) | 0.12 (≈ 0.193 µM) | 0.06 (≈ 0.0964 µM) | 0.25 (≈ 0.402 µM) | 2 (≈ 3.21 µM) | 0.5 (≈ 0.803 µM) | 0.5 (≈ 0.803 µM) | 2 (≈ 3.21 µM) | 8.3 | – |

More lines, main results first:

| MIC [1] [µg/mL] | MIC [2] [µg/mL] | MIC [3] [µg/mL] | MIC [4] [µg/mL] | MIC [5] [µg/mL] | MIC (Proteus rettgeri BC 7) [µg/mL] | MIC [6] [µg/mL] | MIC [7] [µg/mL] | MIC [8] [µg/mL] | MIC [9] [µg/mL] | SMILES | ED50 (E.coli ATCC 11 775) [mg/kg] | ED50 [10] [mg/kg] |
| --- | --- | --- | --- | --- | --- | --- | --- | --- | --- | --- | --- | --- |
| 0.25 (≈ 0.403 µM) | 4 (≈ 6.44 µM) | 0.25 (≈ 0.403 µM) | 0.25 (≈ 0.403 µM) | 0.06 (≈ 0.0967 µM) | 0.25 (≈ 0.403 µM) | 2 (≈ 3.22 µM) | 2 (≈ 3.22 µM) | 2 (≈ 3.22 µM) | 1 (≈ 1.61 µM) | CC1(C)SC2C(NC(=O)C(NC(=O)Nc3cnc(Nc4ccc(C(N)=O)cc4)nc3O)c3ccccc3)C(=O)N2C1C(=O)O (stereo not shown) [Verbindung 34] | 3.2 | – |
| 0.5 (≈ 0.767 µM) | 8 (≈ 12.3 µM) | 0.5 (≈ 0.767 µM) | 0.5 (≈ 0.767 µM) | 0.06 (≈ 0.0921 µM) | 1 (≈ 1.53 µM) | 1 (≈ 1.53 µM) | 8 (≈ 12.3 µM) | 4 (≈ 6.14 µM) | 1 (≈ 1.53 µM) | CC1(C)SC2C(NC(=O)C(NC(=O)Nc3cnc(Nc4ccc(NC(N)=O)cc4)nc3O)c3ccc(O)cc3)C(=O)N2C1C(=O)O (stereo not shown) [Verbindung 43] | 5.6 | – |
| 0.25 (≈ 0.383 µM) | 2 (≈ 3.06 µM) | 0.5 (≈ 0.766 µM) | 0.25 (≈ 0.383 µM) | 0.06 (≈ 0.0919 µM) | 0.5 (≈ 0.766 µM) | 1 (≈ 1.53 µM) | 2 (≈ 3.06 µM) | 2 (≈ 3.06 µM) | 1 (≈ 1.53 µM) | CC1(C)S[C@@H]2[C@H](NC(=O)C(NC(=O)Nc3cnc(Nc4ccc(C(N)=O)c(O)c4)nc3O)c3ccc(O)cc3)C(=O)N2[C@H]1C(=O)O (stereo partly shown) [Verbindung 50] | 4 | – |
| 1 (≈ 1.6 µM) | 4 (≈ 6.41 µM) | 0.25 (≈ 0.401 µM) | 0.25 (≈ 0.401 µM) | 0.06 (≈ 0.0962 µM) | 0.5 (≈ 0.802 µM) | 1 (≈ 1.6 µM) | 8 (≈ 12.8 µM) | 1 (≈ 1.6 µM) | 2 (≈ 3.21 µM) | CC1(C)S[C@@H]2[C@H](NC(=O)C(NC(=O)Nc3cnc(NCc4ccc(O)cc4)nc3O)c3ccc(O)cc3)C(=O)N2[C@H]1C(=O)O (stereo partly shown) [Verbindung 57] | 7.2 | – |
